In PMC4860837, “Structural basis for Sfm1 functioning as a protein arginine methyltransferase” (Cell Discovery, 2015):

Biological target: T1, Sfm1 (Saccharomyces cerevisiae, UniProt Q12314)
T1 construct: full length, residues 1-213; C-terminal His6 tag (crystal) or N-terminal GST tag (activity assay), E. coli BL21(DE3); monomer
Test: X-ray crystallography, […] Å
Type: binding
Conditions: co-crystallised with SAH ([…] molar ratio), pH […] °C; cofactor pocket of trefoil knot

Nc1ncnc2c1ncn2[C@@H]1O[C@H](CSCC[C@H](N)C(=O)O)[C@@H](O)[C@H]1O [SAH]
X-ray crystallography, 2.5 Å: In the SAH-bound Sfm1 structure, SAH is clearly defined in the electron density map
